Data published in US9004162B2, “Methods of stimulating acetoclastic methanogenesis in subterranean deposits of carbonaceous material” (Transworld Technologies Inc., priority 2012, dated 2015).

Test system: microorganism consortium in the subterranean formation
Description: Field tests were conducted on a mature coal-bed methane natural gas well in the Powder River Basin region in Wyoming. […] Total injection volume was 975,450 gallons of formation water, as well as 575.7 lbs. of sodium acetate trihydrate and 2404.7 lbs. of anhydrous sodium acetate. The effective average concentration of acetate in the injection water was 4.06 mM. In the pretreatment period, well 23M-2283 was used to access a microorganism consortium in the subterranean formation and obtain samples for microorganism population analysis.

CC(=O)[O-].[Na+] [acetate amendment, sodium acetate]
total microbial population density (after acetate amendment introduced in situ (effective average 4.06 mM acetate in injection water), pretreatment 4.2×10^4 cells/ml): 1.5×10^6 cells/ml | acetoclastic methanogens as share of total archaea population (at some points during natural gas recovery operations following the two-week period): ~100% | acetoclastic methanogens as share of total archaea (two weeks after introduction of the amendment, pretreatment ~20%): greater than 90% | hydrogenotrophic methanogens as share of total archaea (two weeks after introduction of the amendment, pretreatment ~80%): less than 10%
